# Measurements as given in US4760062A, “Pharmaceutical compositions of N-heterocyclic benzenesulfonamides and their use” (DROPIC, Societe Civile de gestion de droits de Propriete …, priority 1983, dated 1988).
# Like-named read-outs stand apart in the source and are kept apart here.
# Tests used:
# mice [1] = conditions: mouse, in vivo
# [2] = Acute toxicity (LD0, LD50, LD100); conditions: mouse, in vivo
# mice [3] = assay: Acute toxicity (LD0, LD50, LD100); conditions: for ratio between the effective dose and the toxicity: mouse, in vivo
# mice [4] = assay: 4 plates test (suppressive conditioning), 25 mg/kg orally, increase in punished passages with respect to control; assay type: in vivo, Swiss male mice; conditions: Mus musculus, po, 1 h, male mice, 25 mg/kg single oral dose, 60 minutes before the test; read-out: % increase in the number of punished passages with respect to the control batch
# Excerpt: The method is based on the attenuation or suppression of the anxiety state induced by electric shocks on movement of the animals (mice) into a special enclosure.
# The anxiolytic effect is manifested by an increase in movements at doses not affecting motility.
# For each dose, the groups are of 15 animals which have not undergone the test.
# The apparatus was of the Apelex type.
# It is composed of a parallelepipedic box of white plastic material, provided with a lid of transparent plexiglas, mobile by means of two hinges. The floor, which is rectangular, is constituted by four plates of conductive metal of which the distance between one another and the walls of the box is of 0.5 cm.
# These plates are connected to an Apelex impulse generator. The potential difference when there is no impulse is, nil between two plates on a diagonal and is of 180 Volts between two adjacent plates. A trigger enables that a constant electrical current pulse be sent (of 0 to 2 milliamperes) for a selected time (from 0.1 to 5 seconds).
# The operation is carried out in a silent area at constant temperature, the experimenter overlooking the box so that he can follow all the movements of the mice placed on one of the plates.
# For each animal, the experiment is carried out according to the following modalities:
# preliminary exploration of 15 seconds, without electric shock;
# punished exploration (electric shock for each movement between two ajdacent plates) for 60 seconds.
# The electric shocks have a duration of 0.5 seconds and an intensity of 0.6 milliampere.
# The controls receive only carboxymethylcellulose.
# The results are expressed as percentage of increase in the number of punished passages with respect to the control batch (increase percentage).
compound,measurement,setting,value
COc1ccc(Cl)cc1S(=O)(=O)N1CCN(Cc2ccccc2)CC1 [Compound 1245],ratio between the effective dose and the toxicity,mice [1],satisfactory
same,LD50,[2]; ip,> 2000 mg/kg
same,LD0,"mice [3]; mice, route IP",> 2 000 mg/kg
same,LD100,"mice [3]; mice, route IP",> 2 000 mg/kg
COc1cc(OC)c(S(=O)(=O)N2CCN(Cc3ccccc3)CC2)cc1S(C)(=O)=O [Compound 1213],change in vivo at 25 mg/kg,mice [4],13%
O=S(=O)(c1cc(C(F)(F)F)cc(C(F)(F)F)c1)N1CCCNCC1 [Compound 1408],change in vivo at 25 mg/kg,mice [4],22%
COc1cc(OC)c(S(=O)(=O)N2CCN(CCO)CC2)cc1S(C)(=O)=O [Compound 1294],change in vivo at 25 mg/kg,mice [4],17%
"O=S(=O)(c1cc(C(F)(F)F)cc(C(F)(F)F)c1)N1CCCN(CC(O)CO)CC1 (centres unmarked) [Compound 1488, 4-(2.3-dihydroxypropyl)1-[(3,5-ditrifluoromethyl)benzenesulfonyl]homopiperazine]",change in vivo at 25 mg/kg,mice [4],10%
O=S(=O)(c1cc(C(F)(F)F)cc(C(F)(F)F)c1)N1CCNCC1 [Compound 1400],ratio between the effective dose and the toxicity,mice [1],satisfactory
same,LD50,[2],~700 mg/kg
same,LD0,mice [3]; route not given,~250 mg/kg
O=C(c1ccccc1)N1CCN(S(=O)(=O)c2cccc(C(F)(F)F)c2)CC1 [Compound 1502],change in vivo at 25 mg/kg,mice [4],20%
O=C(c1ccco1)N1CCCN(S(=O)(=O)c2ccc(Cl)c(C(F)(F)F)c2)CC1 [Compound 1405],change in vivo at 25 mg/kg,mice [4],14%
O=S(=O)(c1cccc(C(F)(F)F)c1)N1CCN(CCCO)CC1 [Compound 1500],change in vivo at 25 mg/kg,mice [4],25%
COc1cc(OC)c(S(=O)(=O)N2CCN(C)CC2)cc1OC [Compound 1260],change in vivo at 25 mg/kg,mice [4],31%
O=C(N1CCN(S(=O)(=O)c2ccc(Cl)c(C(F)(F)F)c2)CC1)C12CC3CC(CC(C3)C1)C2 [Compound 1406],change in vivo at 25 mg/kg,mice [4],24%
O=S(=O)(c1cccc(C(F)(F)F)c1)N1CCNCC1 [Compound 1504],change in vivo at 25 mg/kg,mice [4],26%
COc1cc(OC)c(S(=O)(=O)N2CCN(CC(O)CO)CC2)cc1Cl (centres unmarked) [Compound 1295],LD50,[2]; ip,820 mg/kg
same,LD0,"mice [3]; mice, route IP",600 mg/kg
same,LD100,"mice [3]; mice, route IP",1 000 mg/kg
same,ratio between the effective dose and the toxicity,mice [3],satisfactory
COc1cc([N+](=O)[O-])c(Cl)cc1S(=O)(=O)N1CCN(C)CC1 [Compound 1292],LD50,[2]; ip,650 mg/kg
same,LD0,"mice [3]; mice, route IP",400 mg/kg
same,LD100,"mice [3]; mice, route IP",1 000 mg/kg
same,ratio between the effective dose and the toxicity,mice [3],satisfactory
COc1ccc(Cl)cc1S(=O)(=O)N1CCN(CCO)CC1 [Compound 1263],change in vivo at 25 mg/kg,mice [4],10%
COc1cc([N+](=O)[O-])c(Cl)cc1S(=O)(=O)N1CCN(CCO)CC1 [Compound 1290],change in vivo at 25 mg/kg,mice [4],17%
O=S(=O)(c1cccc(C(F)(F)F)c1)N1CCN(CCO)CC1 [Compound 1505],change in vivo at 25 mg/kg,mice [4],35%
COc1cc(OC)c(S(=O)(=O)N2CCN(c3ccc(F)cc3)CC2)cc1S(C)(=O)=O [Compound 1298],ratio between the effective dose and the toxicity,mice [1],satisfactory
same,LD50,[2]; ip,> 2000 mg/kg
same,LD0,"mice [3]; mice, route IP",> 2 000 mg/kg
same,LD100,"mice [3]; mice, route IP",> 2 000 mg/kg
COc1ccc(Br)cc1S(=O)(=O)N1CCN(c2ccc(F)cc2)CC1 [Compound 1299],change in vivo at 25 mg/kg,mice [4],28%
O=C(N1CCN(S(=O)(=O)c2cccc(C(F)(F)F)c2)CC1)C12CC3CC(CC(C3)C1)C2 [Compound 1503],change in vivo at 25 mg/kg,mice [4],28%
"COc1cc(N)c(Cl)cc1S(=O)(=O)N1CCN(C)CC1 [Compound 1427, 1'1-[(4-amino 5-chloro 2-methoxy)benzenesulfonyl]4-methyl piperazine]",ratio between the effective dose and the toxicity,mice [1],satisfactory
same,LD50,[2],~800 mg/kg
same,LD0,mice [3]; route not given,~500 mg/kg
O=C(c1ccccc1)N1CCCN(S(=O)(=O)c2ccc(Cl)c(C(F)(F)F)c2)CC1 [Compound 1393],ratio between the effective dose and the toxicity,mice [1],satisfactory
same,LD0,mice [3]; by oral route,> 2 000 mg/kg
O=C(c1ccco1)N1CCN(S(=O)(=O)c2ccc(Cl)c(C(F)(F)F)c2)CC1 [Compound 1402],ratio between the effective dose and the toxicity,mice [1],satisfactory
same,LD0,mice [3]; by oral route,> 2 000 mg/kg
COc1cc(OC)c(S(=O)(=O)N2CCNCC2)cc1OC [Compound 1243],change in vivo at 25 mg/kg,mice [4],18%
same,ratio between the effective dose and the toxicity,mice [1],satisfactory
same,LD50,[2]; iv,200 mg/kg
same,LD0,"mice [3]; mice, route IV",200 mg/kg
same,LD100,"mice [3]; mice, route IV",325 mg/kg
O=C(c1ccco1)N1CCN(S(=O)(=O)c2cc(C(F)(F)F)cc(C(F)(F)F)c2)CC1 [Compound 1403],change in vivo at 25 mg/kg,mice [4],22%
